From US6468555B1, “Pesticidal compositions” (Sumitomo Chemical Company, Limited, priority 1999, dated 2002) come the findings set out here.

One experiment concerns Bemisia argentifolii. Briefly: Pesticidal test against Bemisia argentifolii first-instar nymphs on cabbage seedlings (foliar spray). The note with it: 16 days after application. Type of experiment: in vivo. From the text:
Pesticidal Test Against Bemisia argentifolii
Cabbage seedlings infested with first-instar nymphs of Bemisia argentifollii were uniformly sprayed using a spray gun with a water dilution in a prescribed concentration of a commercial product of compound A (trade name: Lano 10EC; available from Sumitomo Chemical Co., Ltd.), a commercial product of compound B (trade name: Baroque Flowable; available from Yashima Chemical Industry Co., Ltd.), or a mixture of the commercial product of compound A and the commercial product of compound B. After air drying, each of the cabbage seedlings was placed in a net cage and kept in a greenhouse. After 16 days from the application, the number of emergent adults was determined.

A further experiment relates to Aphis gossypii. Briefly: Pesticidal test against Aphis gossypii on potted cabbage plants (foliar spray). Type of experiment: in vivo. Particulars: 2.0 ppm active ingredient, 20 adults set free per pot; for Number of surviving aphids per pot After 3 days: 3 days after spraying; for Number of surviving aphids per pot After 6 days: 6 days after spraying. From the text: Pesticidal Test Against Aphis gossypii
Twenty adults of Aphis gossypii were set free on three-leafed cabbage plants in pots. These plants were uniformly sprayed using a spray gun with a water dilution in a prescribed concentration of a commercial product of compound A (trade name: Lano 10EC; available from Sumitomo Chemical Co., Ltd.), a commercial product of compound B (trade name: Baroque Flowable; available from Yashima Chemical Industry Co., Ltd.), or a mixture of the commercial product of compound A and the commercial product of compound B. After air drying, the pots were placed in a greenhouse. On a predetermined day after the application, the cabbage plants were examined for the number of aphids surviving thereon.

With `CC(COc1ccc(Oc2ccccc2)cc1)Oc1ccccn1` (stereo not drawn) [Compound A, 4-phenoxyphenyl 2-(2-pyridyloxy)propyl ether], in the experiment with Bemisia argentifolii (0.2 ppm, 108 nymphs used), the “Number of emergent adults” value is 13. For the same compound, in the experiment on Aphis gossypii, the “Number of surviving aphids per pot After 3 days” value is recorded as 45 and the “Number of surviving aphids per pot After 6 days” value came out at 11.
As to `CCOc1cc(C(C)(C)C)ccc1C1COC(c2c(F)cccc2F)=N1` (stereo not drawn) [Compound B, 2-(2,6-difluorophenyl)-4-(2-ethoxy-4-tert-butyl-phenyl)-2-oxazoline], the “Number of emergent adults” value in the experiment on Bemisia argentifolii (0.4 ppm, 125 nymphs used) is recorded as 51. Besides, in the experiment on Aphis gossypii, the “Number of surviving aphids per pot After 3 days” value stood at 11 and the “Number of surviving aphids per pot After 6 days” value is recorded as 25.
